The source of these data is patent US7989602B2, “Synthetic molecules having immune activity” (The Malaghan Institute of Medical Research, priority 2003, dated 2011).

Like-named read-outs stand apart in the source and are kept apart here.

Assay [1] concerns C57BL-6 mouse spleen cells. Kind of assay: Cytokine production in vitro by mouse spleen cells (ELISA). It is filed as cell-based. On the technique in general: ELISA stands for enzyme-linked immunosorbent assay.
The test system of another assay is airway eosinophilia. Put plainly: OVA-induced airway eosinophilia mouse model. In kind it is in vivo, C57B1/6J mice.
Setting [2] is: 5 μg/ml, dissolved in Tween/PBS, PIM-2 control also in 0.02% Tween/PBS, 24 hours.
Where [3] appears, read: 5 μg/ml in PBS, 24 hours, 10^6 cells per well, ELISA.

As to `CCCCCCCCCCCCCCCCCC(=O)OC[C@H](COP(=O)(O)OCCO[C@H]1O[C@H](CO)[C@@H](O)[C@H](O)[C@@H]1O)OC(=O)CCCCCCCCCCCCCCCCC` [Compound 7, Triethylammonium 1-O-(1,2-di-O-stearoyl-sn-glycero-3-phosphoryl)-2-O-(α-D-mannopyranosyl)-1,2-ethanediol], in assay [1] (setting [2]), the “IFNγ compared with PIM-2 control” value came to 1.26 and the “IL-12 compared with PIM-2 control” value is 1.03. In assay [1] (in words, summary of Table 4), the “induced production of IFNγ” value was “notable levels” and the “induced production of IL-12” value was “notable levels”.
Turning to `CCCCCCCCCCCCCCCCCC(=O)OCC(CO[C@H]1O[C@H](CO)[C@@H](O)[C@H](O)[C@@H]1O)OC(=O)CCCCCCCCCCCCCCCCC` (mixture of isomers) [Compound 17, 1,2-di-O-stearoyl-3-O-α-D-mannopyranosylglycerol], the biological activity result in the assay with airway eosinophilia (results not shown, stated in Example 2) is “not biologically active”.
Turning to `CCCCCCCCCCCCCCCCCCOP(=O)([O-])OC(COC1OC(CO)C(O)C(O)C1O)COC1OC(CO)C(O)C(O)C1O.[Na+]` [Compound 47, Sodium 2-O-(Octadecylphosphoryl)-1,3-bis-O-(α-D-mannopyranosyl)glycerol], in assay [1] (setting [3]), the “IFNγ compared with PIM-2 control” value is reported as 0.03, the “IL-4 compared with PIM-2 control” value is given as 1.94, the “IL-10 compared with PIM-2 control” value turned out to be 0.53 and the “IL-12 compared with PIM-2 control” value came to 0.56. In assay [1] (in words, summary of Table 4), the “induced production of IL-4” value is “greater levels”, the “induced production of IL-10” value was “induced production” and the “induced production of IL-12” value is “induced production”.
For `CCCCCCCCCCCCCCCCCC(=O)OC[C@H](COP(=O)([O-])OC(COC1OC(CO)C(O)C(O)C1O)COC1OC(CO)C(O)C(O)C1O)OC(=O)CCCCCCCCCCCCCCCCC.[Na+]` (stereo partly drawn) [Compound 44, Sodium(1,2-di-O-stearoyl-sn-glycero-3-phoshoryl)-2-[1,3-bis-O-(α-D-galactopyranoside)]glycerol], the “IL-12 compared with PIM-2 control” value in assay [1] (setting [3]) turned out to be 0.14. Moreover, the “induced production of IL-12” value in assay [1] (in words, summary of Table 4) is recorded as “a small amount”; in assay [1] (in words, summary of Table 4, listed as compound 44), “only a low level”.
For the compound `CCCCCCCCCCCCCCCCCC(=O)OC[C@H](COP(=O)([O-])OCCO[C@H]1O[C@H](CO[C@H]2O[C@H](CO)[C@@H](O)[C@H](O)[C@@H]2O)[C@@H](O)[C@H](O)[C@@H]1O)OC(=O)CCCCCCCCCCCCCCCCC.[Na+]` [Compound 28, Sodium 1-O-(1,2-di-O-stearoyl-sn-glycero-3-phosphoryl)-2-O-[6-O-(α-D-mannopyranosyl)-α-D-mannopyranosyl]-1,2-ethanediol], in assay [1], the “IFNγ compared with PIM-2 control” value amounted to 0.62, the “IL-10 compared with PIM-2 control” value amounted to 0.36, the “IL-12 compared with PIM-2 control” value was 1.15 and the “induced production of IFNγ” value is recorded as “notable levels”. For the same compound, the “induced production of IL-12” value in assay [1] is recorded as “notable levels”.
Take `CCCCCCCCCCCCCCCCCC(=O)OC[C@H](COP(=O)([O-])OCCCOC1OC(CO)C(O)C(O)C1O)OC(=O)CCCCCCCCCCCCCCCCC.[Na+]` (stereo partly shown) [Compound 31]: in assay [1] (setting [3]), the “IFNγ compared with PIM-2 control” value is reported as 0.75 and the “IL-12 compared with PIM-2 control” value is on record as 1.80. Moreover, in assay [1] (in words, summary of Table 4), the “induced production of IFNγ” value is on record as “notable levels” and the “induced production of IL-12” value was “notable levels”.
In the case of “L-α-Phosphatidylinositol [reference compound]”, in assay [1] (setting [3]), the “IFNγ compared with PIM-2 control” value worked out at 0.39.
Turning to `CCCCCCCCCCCCCCCCCC(=O)OC[C@H](COP(=O)([O-])O[C@@H]1CCCC[C@H]1OC1OC(CO)C(O)C(O)C1O)OC(=O)CCCCCCCCCCCCCCCCC.[Na+]` (stereo partly drawn) [Compound 36, 1-O-(Sodium 1,2-di-O-stearoyl-sn-glycero-3-phosphoryl)-2-O-(-α-D-mannopyranosyl)-cyclohexane-1,2-diol], in assay [1] (setting [3]), the “IFNγ compared with PIM-2 control” value was found to be 0.05, the “IL-4 compared with PIM-2 control” value is reported as 4.29, the “IL-10 compared with PIM-2 control” value is given as 0.60 and the “IL-12 compared with PIM-2 control” value is recorded as 1.59. Moreover, in assay [1] (in words, summary of Table 4), the “induced production of IL-4” value is on record as “levels greater than PIM-22,6” and the “induced production of IL-12” value is reported as “levels greater than PIM-22,6”.
On to `CCCCCCCCCCCCCCCCCC(=O)OCC(COP(=O)(O)OC(COC1OC(CO)C(O)C(O)C1O)COC1OC(CO)C(O)C(O)C1O)OC(=O)CCCCCCCCCCCCCCCCC` [Compound 15, Triethylammonium 2-O-(1,2-O-distearoyl-sn-glycero-3-phoshoryl)-1,3-bis-O-(α-D-mannopyranosyl)glycerol], for which, in assay [1] (setting [3]), the “IFNγ compared with PIM-2 control” value is given as 0.98. Also, the “induced production of IFNγ” value in assay [1] (in words, summary of Table 4) was “levels comparable to PIM-22,6”. Also, the “Mean Eosinophil Count (×10^6), least square means by test molecule type” value with airway eosinophilia (BAL 4 days after intranasal OVA challenge, intranasal treatment in 50 μl PBS, mean over dose rates 0, 0.02, 0.2, 2.0) was 0.144 ×10^6.
